The text below walks through data of patent US7537760B2, “Monoclonal antibodies recognizing BAG3 protein sequences and their use in diagnostic and therapy of cell death-involving diseases” (priority 2001, dated 2009).

The subject of series [1] is cells of the human osteosarcoma line SAOS. The series is described as follows: Apoptosis in SAOS cells, cell permeabilization and PI staining. The series is classed as cell-based. The following applies: 72 h; for % of apoptosis, incubation Etoposide (5 microM) / % of apoptosis, incubation Topotecan (40 ng/ml): without or with oligo 5 microM. On the procedure: Cells of the SAOS line were incubated for 72 h in 10% FCS-RPMI without or with chemotherapeutic compounds (etoposide or topotecan) and/or the BAG3 antisense or control nonsense phosphorothioate oligodeoxynucleotides (5 microM) described in the text. Then cell apoptosis was analysed by cell permeabilization and PI staining according to ref.11.

The next series relates to BAG3. The series is described as follows: BAG3 mRNA (PCR) and protein (immunofluorescence) levels in primary B-CLL cells. The series is classed as cell-based, human. On the procedure:
FIG. 1—Expression of BAG3 mRNA and protein in primary cells from leukemia patients. Leukemic cells were isolated from B-CLL patients' peripheral blood specimens by centrifugation through Ficoll-Hypaque (13) and cultured for 24 hours in RPMI 1640 medium supplemented with 10% fetal calf serum (10% FCS-RPMI), without or with fludarabine phosphate. A panel: cell mRNA was the extracted and BAG3 expression was verified by PCR (GAPDH expression is shown for comparative purpose); B panel: cells were permeabilised and analysed by indirect immunofluorescence with the polyclonal antibody AC-BAG3-1. A=control rabbit Ig; b=cells incubated with control medium and analysed with anti-BAG3; c=cells incubated with fludarabine and analysed with anti-BAG3.
FIG. 2—Downmodulation of BAG3 protein levels by anti-BAG3 antisense oligodeoxynucleotides. Leukemic cells were isolated from B-CLL patients' peripheral blood specimens by centrifugation through Ficoll-Hypaque and cultured for 20 hours without (b) or with BAG3 antisense (b+α) or control nonsense (b+ν) phosphorothioate oligodeoxynucleotides (5 microM) described in the text. Then cells were permeabilised and analysed by indirect immunofluorescence with the polyclonal antibody AC-BAG3-1. a=control rabbit Ig.

The target of a further series is T1, BAG3 protein (Homo sapiens, UniProt O95817).
T1 construct: endogenous in cells; host or cells: primary leukemic cells from patients' peripheral blood (B-CLL, acute leukemia)
The series is described as follows: BAG3 protein in ALL cells, Western blot and intracellular immunofluorescence. Type of series: cell-based. The following applies: oligo 5 microM, 24 hr. On the procedure:
FIG. 11 Expression of BAG3 protein in ALL cells and its downmodulation by BAG3-specific antisense oligonucleotides. A—ALL cells (1×10^6/ml) were cultured in 10% FCS-RPMI without or with control nonsense ([…], SEQ ID NO 12, nonsense 1) or BAG3-specific antisense ([…], SEQ ID NO 9, antisense 1) oligonucleotides (5 microM) for 24 hr. Then cell lysates were obtained and analyzed in Western blot with anti-BAG3 (AC-BAG3-1; analogous results were obtained With AC-BAG3-2) or anti-tubulin antibodies. B—ALL cells (1×10^6/ml) were cultured in 10% FCS-RPMI without or with BAG3-specific antisense ([…], SEQ ID NO 9, antisense 1) (a) or control nonsense ([…], SEQ ID NO 12, nonsense 1) (b) oligonucleotides (5 microM) for 24 hr. Then the cells were analyzed by intracellular immunofluorescence with the anti-BAG3 polyclonal antibody. Negative controls with a control rabbit antibody preparation are shown on the left in a and b.
For orientation: A western blot detects proteins with antibodies after separation by electrophoresis.

T1 sequence (O95817 whole entry): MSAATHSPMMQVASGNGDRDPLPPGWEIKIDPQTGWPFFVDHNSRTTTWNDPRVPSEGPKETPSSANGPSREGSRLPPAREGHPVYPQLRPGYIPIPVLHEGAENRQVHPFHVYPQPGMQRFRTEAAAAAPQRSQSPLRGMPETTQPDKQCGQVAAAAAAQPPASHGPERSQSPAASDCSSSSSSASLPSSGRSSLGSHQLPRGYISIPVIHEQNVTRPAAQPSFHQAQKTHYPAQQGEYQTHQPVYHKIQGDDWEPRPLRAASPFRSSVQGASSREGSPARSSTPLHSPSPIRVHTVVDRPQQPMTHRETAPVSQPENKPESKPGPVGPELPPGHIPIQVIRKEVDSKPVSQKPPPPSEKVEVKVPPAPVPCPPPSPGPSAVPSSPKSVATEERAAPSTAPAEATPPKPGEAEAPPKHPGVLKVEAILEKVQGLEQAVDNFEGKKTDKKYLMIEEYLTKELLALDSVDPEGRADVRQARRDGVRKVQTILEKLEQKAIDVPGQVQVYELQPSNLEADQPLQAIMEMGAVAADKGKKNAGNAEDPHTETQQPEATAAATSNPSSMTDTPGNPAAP

Take `COc1cc([C@@H]2c3cc4c(cc3[C@@H](O[C@@H]3O[C@@H]5CO[C@@H](C)O[C@H]5[C@H](O)[C@H]3O)[C@H]3COC(=O)[C@H]23)OCO4)cc(OC)c1O` [Etoposide, etoposide]: in series [1], the “% of apoptosis, incubation Etoposide (5 microM)” value is given as 38.32%.

Regarding `CC[C@@]1(O)C(=O)OCc2c1cc1n(c2=O)Cc2cc3c(CN(C)C)c(O)ccc3nc2-1` [Topotecan, topotecan], the “% of apoptosis, incubation Topotecan (40 ng/ml)” value in series [1] is 36.84%.

As for `Nc1nc(F)nc2c1ncn2[C@@H]1O[C@H](COP(=O)(O)O)[C@@H](O)[C@@H]1O` [fludarabine, fludarabine phosphate], in the series on BAG3 (24 hours, PCR), the “BAG3 mRNA levels” value was “enhanced”. Further, the BAG3 protein levels entry in the series with BAG3 (immunofluorescence, 11 of 13 BAG3-positive specimens (18 examined)) is reported as “upregulated”.

On to “antisense 1: BAG3 antisense phosphorothioate oligodeoxynucleotide TGCATCATGGGCGAGTGGGTGGCGG (antisense TGCATCATGGGCGAGTGGGTGGCGG; DNA, all phosphorothioate, methylation of C not given here; listed as Homo sapiens)”, for which the “BAG3 protein in ALL cells” value in the series with BAG3 protein is listed as “downmodulation”.

For the compound “control nonsense: control nonsense phosphorothioate oligodeoxynucleotides described in the text; which of nonsense 1-3 is not stated (DNA TTATATTCTATTATATTTATGAACTCC; DNA, all phosphorothioate, methylation of C not given here; listed as Homo sapiens)”, in series [1], the “% of apoptosis, incubation Etoposide (5 microM)” value came to 45.40% and the “% of apoptosis, incubation Topotecan (40 ng/ml)” value was determined as 41.60%. Further, the “% of apoptosis, incubation control medium” value in series [1] (oligo 5 microM, no chemotherapeutic compound) amounted to 25.84%.
